Test results: US20050113371A1, “Antifungal agent for topical use” (priority 2002, published 2005)
Read-outs that look alike come from different tables or passages of the source.

Columns and labels:
[1] = test system: Trichophyton mentagrophytes; assay: Antifungal activity on Sabouraud agar medium, MIC and FIC index (Test Examples 1 and 2); assay type: cell-based; conditions: for MIC: Trichophyton mentagrophytes, 168 h, read-out: Minimum inhibitory concentration (MIC); for FIC index obtained by the combination of amorolfine hydrochloride with another medicine: Test Example 1, amorolfine hydrochloride + medicine at mass ratio 1:1
Description: (§1) Amorolfine hydrochloride and each specimen (hereinafter referred to as “medicine”) at a mass ratio of 1:1 were dissolved in dimethyl sulfoxide (DMSO). Two-fold dilution series were prepared with DMSO. In the determination of the antifungal activity, the medicine and the medium were mixed together at a ratio of 1:99.
(§2) Sabouraud agar medium (Eiken) was used as a susceptibility determination medium. A microbe suspension containing 10^6 spores/mL of Candida albicans or about 10^6 conidia/mL of ringworm fungus was prepared. 5 μl of the suspension was inoculated on the Sabouraud agar medium containing the medicine with a micro-planter (a product of Sakuma Seisakusho). Candida albicans was cultured for 2 days and the tinea was cultured for 7 days. […]

Trichophyton rubrum = assay: as above; assay type: cell-based; conditions: for MIC: Trichophyton rubrum, 168 h, read-out: Minimum inhibitory concentration (MIC); for FIC index obtained by the combination of amorolfine hydrochloride with another medicine: Test Example 1, amorolfine hydrochloride + medicine at mass ratio 1:1
Description: as §1, §2

Candida albicans = assay: as above; assay type: cell-based; conditions: for MIC: Candida albicans, 48 h, read-out: Minimum inhibitory concentration (MIC); for FIC index obtained by the combination of amorolfine hydrochloride with another medicine: Test Example 1, amorolfine hydrochloride + medicine at mass ratio 1:1
Description: as §1
(§3) Sabouraud agar medium (Eiken) was used as a susceptibility determination medium. A microbe suspension containing 10^6 spores/mL of Candida albicans or about 10^6 conidia/mL of ringworm fungus was prepared. 5 μl of the suspension was inoculated on the Sabouraud agar medium containing the medicine with a micro-planter (a product of Sakuma Seisakusho). Candida albicans was cultured for 2 days and the tinea was cultured for 7 days.
The effect obtained by the combination was judged on the basis of the following standards (FIC index): • >2: antagonism • 2>and 1<: additive action • 1>: potentiation
(1) Amorolfine hydrochloride and each specimen (hereinafter referred to as “medicine”) at a mass ratio of 100:1 to 1:100 were dissolved in dimethyl sulfoxide (DMSO). Two-fold dilution series were prepared with DMSO. In the determination of the antifungal activity, the medicine and the medium were mixed together at a ratio of 1:99.
(2) Amorolfine hydrochloride and each specimen (hereinafter referred to as “medicine”) at a mass ratio of 1:3 to 3:1 were dissolved in dimethyl sulfoxide (DMSO). Two-fold dilution series were prepared with DMSO. In the determination of the antifungal activity, the medicine and the medium were mixed together at a ratio of 1:99.
as §3, with “conidia/mL of each of two kinds of ringworm fungus” for “conidia/mL of ringworm fungus”, “agar medium with a” for “agar medium containing the medicine with a”, “and the Tinea fungus was cultured” for “and the tinea was cultured”

[2] = test system: Trichophyton mentagrophytes TIMM 1189; assay: Tinea infection model of guinea pigs, culture test (Test Example 3); assay type: in vivo; conditions: 0.75 mass % in polyethylene glycol 400 (combination 1:2), 0.1 mL once a day for 5 days from 3 days after inoculation; culture on 5th day after last application; 10 loci
Description: Amorolfine hydrochloride and each specimen (hereinafter referred to as “medicine”) at a mass ratio of 1:2 were dissolved in polyethylene glycol 400 to obtain a final concentration of 0.75% mass ratio. Each of amorolfine hydrochloride and the medicines was separately dissolved in polyethylene glycol 400 to obtain solutions having the final concentration of 0.75 mass %.
Male Hartley guinea pigs (Japan SLC Co., Ltd.; 6 weeks) were used. In the course of the test, they were kept separately from one another in an isolator (Negative rack, CLEA JAPAN, Inc.). They could freely have a solid food (G standard, Nihon Nosan Kogyo KK) and water.
Trichophyton mentagrophytes TIMM 1189 was cultured on slant Sabouraud glucose agar medium at 27° C. for 14 days. Then, sterilized saline containing 0.05% of Tween 80 was added thereto to obtain conidia. The resultant suspension was filtered through a cell strainer (FALCON Co., Ltd.) to remove large mycelian masses. The number of conidia was counted with hemocytometer. The conidia were diluted to 4×10^7/mL with sterilized saline containing 0.05% of Tween 80 to obtain the conidial suspension for inoculation.
The back of each guinea pig was shaved. Then, a circular inoculation part having a diameter of 2 cm was positioned on both sides of the spinal column. A gummed tape was applied thereto and then peeled. These steps was repeated three times, whereby the hair was pulled out of the skin in both parts and, at the same time, the top of the corneous layer of the skin was peeled off. The remaining hair was completely removed with tweezers. […]
When at least one of the 10 small pieces taken from one inoculated locus of the skin was the positive after the culture, the inoculated locus was judged to be positive. The ratio of positive loci after culture was calculated from the number of the cultured positive pieces in the total 10 inoculated loci in each experiment group.
The number of the cultured positive small pieces in the inoculated portion was scored as will be described below to determine the infection. […]

[3] = rats, oral; administration from before the pregnancy to the lactation period or perinatal period/lactation period; cited from earlier work
[4] = cited from earlier work
[5] = cited from earlier work; remark: listed apart in the source
[6] = cited from earlier work; remark: listed apart in the source
Candida = conditions: cited from earlier work
[7] = in vivo; cited from earlier work
[8] = rabbit, in vivo; cited from earlier work
[9] = Test Example 2, geometric mean MIC of two strains, cultured 7 days

## CCC(C)(C)c1ccc(CC(C)CN2CC(C)OC(C)C2)cc1.Cl (racemic) [amorolfine hydrochloride, (±)-cis-2,6-dimethyl-4-[3-[4-(1,1-dimethylpropyl)phenyl]-2-methylpropyl]-morpholine monohydrochloride]
[1]
  MIC: 0.031 µg/mL
Trichophyton rubrum
  MIC: 0.016 µg/mL
Candida albicans
  MIC: 1 µg/mL
[2]
  rate of positive loci after culture: 100%
[3]
  dose with an influence on the survival rate of newborn babies: at least 10 mg/kg/day
[4]; mice, intraperitoneal injection, female
  LD50: 239 mg/kg
[4]; mice, intraperitoneal injection, male
  LD50: 205 mg/kg
[4]; mice, intravenous injection, female
  LD50: 112 mg/kg
[4]; mice, intravenous injection, male
  LD50: 141 mg/kg
[4]; mice, oral, female
  LD50: 2406 mg/kg
[4]; mice, oral, male
  LD50: 2514 mg/kg
[4]; mice, subcutaneous, male and female
  LD50: > 5000 mg/kg
[5]; rats, intraperitoneal injection, female
  LD50: 465 mg/kg
[5]; rats, intraperitoneal injection, male
  LD50: 468 mg/kg
[5]; rats, oral, female
  LD50: 1756 mg/kg
[5]; rats, oral, male
  LD50: 1960 mg/kg
[5]; rats, subcutaneous, male and female
  LD50: > 2000 mg/kg
[6]; dogs, oral, male and female
  LD50: > 1000 mg/kg
[6]; dogs, subcutaneous, male
  LD50: > 2500 mg/kg

## Cc1cc(C2CCCCC2)n(O)c(=O)c1.NCCO [Ciclopyrox olamine]
[1]; cultured 7 days
  FIC index obtained by the combination of amorolfine hydrochloride with another medicine: 1.0
Trichophyton rubrum; cultured 7 days
  FIC index obtained by the combination of amorolfine hydrochloride with another medicine: 1.0
Candida albicans; cultured 2 days
  FIC index obtained by the combination of amorolfine hydrochloride with another medicine: 0.38

## N#C/C(=C1/SCC(c2ccccc2Cl)S1)n1ccnc1 (centres unmarked) [Lanoconazole]
[1]; cultured 7 days
  FIC index obtained by the combination of amorolfine hydrochloride with another medicine: 1.00
Trichophyton rubrum; cultured 7 days
  FIC index obtained by the combination of amorolfine hydrochloride with another medicine: 1.25
Candida albicans; cultured 2 days
  FIC index obtained by the combination of amorolfine hydrochloride with another medicine: 0.53

## Cc1cccc(N(C)C(=S)Oc2ccc3ccccc3c2)c1 [Tolnaftate]
[1]; cultured 7 days
  FIC index obtained by the combination of amorolfine hydrochloride with another medicine: 1.25
Trichophyton rubrum; cultured 7 days
  FIC index obtained by the combination of amorolfine hydrochloride with another medicine: 0.35
Candida albicans; cultured 2 days
  FIC index obtained by the combination of amorolfine hydrochloride with another medicine: 0.38

## CN(Cc1ccc(C(C)(C)C)cc1)Cc1cccc2ccccc12.Cl [butenafine hydrochloride, N-4-tert-butylbenzyl-N-methyl-1-naphthalenemethylamine hydrochloride]
[1]; cultured 7 days
  FIC index obtained by the combination of amorolfine hydrochloride with another medicine: 0.49
[1]; [9]
  MIC: 0.016 µg/mL
Trichophyton rubrum; cultured 7 days
  FIC index obtained by the combination of amorolfine hydrochloride with another medicine: 0.38
Trichophyton rubrum; [9]
  MIC: 0.004 µg/mL
Candida albicans; Test Example 2, geometric mean MIC of two strains, cultured 2 days
  MIC: > 8 µg/mL
Candida albicans; cultured 2 days
  FIC index obtained by the combination of amorolfine hydrochloride with another medicine: 0.38
Candida albicans; Test Example 2, geometric mean MIC of two strains, cultured 2 days, listed as B, hydrochloride
  Minimum inhibitory concentration (MIC): >8.0 µg/mL
[2]
  rate of positive loci after culture: 100%
Candida
  antifungal effect on Candida: ineffective
[4]; ICR male and female mice, intravenous injection
  LD50: > 140 mg/kg
[4]; ICR male and female mice, oral
  LD50: > 5000 mg/kg
[4]; ICR male and female mice, percutaneous
  LD50: > 800 mg/kg
[4]; ICR male and female mice, subcutaneous
  LD50: > 200 mg/kg
[5]; Wistar rats, intravenous injection, female
  LD50: ≥ 100 mg/kg
[5]; Wistar rats, intravenous injection, male
  LD50: > 100 mg/kg
[5]; Wistar rats, oral, male and female
  LD50: > 4000 mg/kg
[5]; Wistar rats, percutaneous, male and female
  LD50: > 1000 mg/kg
[5]; Wistar rats, subcutaneous, male and female
  LD50: > 150 mg/kg
[6]; Beagle dogs, male, oral
  LD50: > 5000 mg/kg
[6]; Beagle dogs, male, percutaneous
  LD50: > 100 mg/kg
[7]
  toxicity on the reproduction or development: No toxicity was found
[8]
  localized irritation: weak
